Test results taken from patent US20080206738A1, “Compositions and methods for modulating S-nitrosoglutathione reductase” (Duke University, priority 2003, published 2008).

Tests used:
GRK2 [1] = biological target: T1, GRK2 (Homo sapiens, UniProt P25098); assay: GRK2-mediated phosphorylation of purified β2-AR in a reconstituted system; format: biochemical; conditions: cysNO 500, 50, 5 μM; isoproterenol (10 μM) stimulated; β2-AR reconstituted in synthetic vesicles
T1 sequence (P25098 1-689): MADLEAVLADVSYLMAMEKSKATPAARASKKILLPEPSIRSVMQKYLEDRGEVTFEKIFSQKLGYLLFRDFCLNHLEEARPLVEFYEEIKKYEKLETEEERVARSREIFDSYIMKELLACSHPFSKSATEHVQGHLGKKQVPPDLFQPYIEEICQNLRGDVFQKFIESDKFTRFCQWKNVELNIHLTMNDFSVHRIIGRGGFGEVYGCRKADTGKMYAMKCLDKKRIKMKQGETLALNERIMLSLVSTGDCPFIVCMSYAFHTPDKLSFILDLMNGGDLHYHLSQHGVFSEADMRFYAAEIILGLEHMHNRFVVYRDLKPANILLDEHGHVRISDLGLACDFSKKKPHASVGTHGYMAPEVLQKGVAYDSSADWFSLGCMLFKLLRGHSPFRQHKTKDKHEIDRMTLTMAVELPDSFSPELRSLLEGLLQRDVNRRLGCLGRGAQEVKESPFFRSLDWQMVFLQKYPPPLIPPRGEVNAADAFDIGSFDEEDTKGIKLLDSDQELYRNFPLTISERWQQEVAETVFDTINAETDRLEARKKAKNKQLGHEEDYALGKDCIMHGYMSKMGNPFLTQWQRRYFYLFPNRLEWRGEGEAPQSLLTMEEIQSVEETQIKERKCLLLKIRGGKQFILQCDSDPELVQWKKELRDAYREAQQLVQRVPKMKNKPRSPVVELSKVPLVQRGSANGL
Method: (§1) FIGS. 11A-11B. Results from GRK studies. FIG. 11A. Representative gel from experiments examining the effect of cysNO (500, 50, and 5 μM) on isoproterenol (10 μM) stimulated GRK2 mediated receptor phosphorylation using purified β2-AR reconstituted in synthetic vesicles and purified GRK2. FIG. 11B: Representative gel from experiments examining the effect of cysNO (5, 50, and 500 μM) light stimulated GRK2 mediated phosphorylation of rhodopsin using purified bovine rod outer segments and purified GRK2.
(§2) Previous data provided strong evidence supporting the hypothesis that NO prevented GRK (G protein-coupled receptor kinase)-mediated phosphorylation of the β2-AR (adrenergic receptor). Further experiments were required to determine whether NO was acting directly on the receptor or the GRKs. To elucidate the site of NO action, its effect was tested on GRK2-mediated phosphorylation of the β2-AR and on a soluble peptide substrate using purified proteins in a reconstituted system.

GRK2 [2] = biological target: T1, GRK2; assay: GRK2-mediated phosphorylation of rhodopsin from purified bovine rod outer segments; format: biochemical; conditions: cysNO 5, 50, 500 μM, light stimulated
Method: as §1, §2

GRK2 [3] = biological target: T1, GRK2; assay: Purified GRK2-mediated in vitro phosphorylation of a soluble peptide substrate (RRREEEEESAAA); format: biochemical; conditions: 500, 50, and 5 μM; n=2; P<0.05
Method: FIGS. 12A-12B: Effect of cysNO (A: 500, 50, and 5 μM) and GSNO (B: 500, 50, and 5 μM) on purified GRK2 mediated in vitro phosphorylation of a soluble peptide substrate (RRREEEEESAAA; SEQ ID NO:30) (n=2; *P<0.05).
To confirm this, experiments were performed to examine the capacity of SNOs to inhibit purified GRK2-mediated phosphorylation of a synthetic peptide substrate (RRREEEEESAAA; SEQ ID NO:30).

cardiac β-ARs = assay: Chronic isoproterenol-induced cardiac hypertrophy and β-AR down-regulation in mice (mini-osmotic pump); format: in vivo, mouse
Method: FIGS. 13A-13C: Results of Cardiac Studies. FIG. 13A: Heart weight to body weight ratio (hw:bw, mg:g) (n=10); FIG. 13B: Cardiac β-AR density (BMax, fmol/mg protein (n=5); FIG. 13C: Cardiac PARK protein expression levels (n=4), in mice following mini-osmotic pump implantation and treatment for 7 days with either PBS, isoproterenol (ISO) (30 mg/kg/day), GSNO (10 mg/kg/day) or a combination of ISO and GSNO. All data expressed as mean (+/−SEM) (*P<0.05 versus PBS treated mice, +P<0.05 versus ISO treated mice, unpaired t test).
One well established model of experimental cardiac hypertrophy in the mouse involves the chronic administration of the β-AR agonist, isoproterenol. This treatment leads to a functional uncoupling and down-regulation of cardiac β-ARs and the development of a significant increase in wall mass. Experiments were performed to study the effects of GSNO on the development of cardiac hypertrophy and its ability to alter the pattern of β-AR down-regulation associated with chronic isoproterenol stimulation.
Whole cell and membrane receptor/ligand binding was performed to assess functional affinity of receptor for ligand and overall receptor density as described previously. In particular, whole cell and membrane binding was assessed for cells treated with multiple concentrations of NO/SNO in the presence and absence of desensitizing conditions (agonist pre-stimulation).
In contrast, the combined infusion of GSNO with ISO maintained P receptor density (FIG. 13B) because it inhibits PARK (GRK2) (FIGS. 12A-12B). Therefore, inhibitors of GSNOR alone or in combination with β-agonists could be used to improve heart failure, or other vascular disorders such as hypertension and asthma.

[4] = tested on: LPS-challenged GSNOR−/− mice; assay: iNOS inhibition with 1400 W in LPS-challenged GSNOR−/− mice (endotoxic shock); format: in vivo, mouse
Description: Blood was obtained by cardiac puncture after animals were euthanized by CO2 inhalation. The following serum chemistries were quantified by Antech Diagnostics (Farmingdale, N.Y.): alanine aminotransferase (ALT), aspartate aminotransferase (AST), creatine phosphokinase (CPK), urea nitrogen (BUN), creatinine, amylase, lipase, lactate dehydrogenase, alkaline phosphatase, total protein, globulin, albumin, calcium, magnesium, sodium, potassium, chloride, phosphorus, glucose, bilirubin, cholesterol, triglycerides, and osmolality.
Serum nitrate and nitrite were measured by capillary electrophoresis (CE) (Zunic et al., 1999) with a P/ACE MDQ system (Beckman) and by chemiluminescence (Sievers NO Analyzer). For CE, sera were diluted (1:10) with water and filtered through a 5 kDa cut-off membrane. Electrophoresis of the filtered samples and of nitrate and nitrite standards was carried out in a neutral capillary with Tris buffer (100 mM, pH 8.0), and monitored by absorbance at 214 nm. Nitrite concentrations are higher when measured by CE than by chemiluminescence (Zunic et al., 1999), but no relative differences between CE and chemiluminescence were observed.
LPS (E. coli, serotype 026:B6, Sigma) at a dosage of 150,000 endotoxin units/g (EU/g) was injected intraperitoneally into C57BL/6 and GSNOR^−/− mice. The mice were matched for age (11-12 weeks old), gender, and weight. LPS used for the males was lot number 050K4117 (15 million EU/mg) and LPS used for the females was lot number 101K4080 (3 million EU/mg). Studies were done in 45 additional male mice (22 wild-type and 23 GSNOR^−/−) administered lot number 101K4080. […] Phosphate-buffered saline (PBS, 20 μl/g) was injected in controls. In additional sets of experiments, LPS-challenged GSNOR^−/− mice were injected subcutaneously with the iNOS inhibitor 1400 W (1 μg/g, Cayman) or PBS (10 μl/g). Injections were performed at 6, 24 and 30 hours after LPS, or at 24, 42 and 48 hours after LPS.
Liver homogenates were prepared in lysis buffer (20 mM Tris-HCl, pH 8.0, 0.5 mM EDTA, 100 μM diethylenetriamine pentaacetic acid, 0.1% NP-40 and 1 mM phenylmethylsulfonyl fluoride). SNO levels in the total lysate and in a fraction filtered through a 5 kDa cut-off ultrafiltration membrane (low-mass SNO) were measured by photolysis-chemiluminescence (Liu et al., 2000b) and normalized for protein content.
Survival data on day 6 after LPS treatment were analyzed by both the χ^2 test and the Fisher exact test of contingency tables, with similar results. Blood pressure, SNO levels and serum chemistries were analyzed with the Student's t-test or with the nonparametric Mann-Whitney test.
Additional experiments were performed to establish the contribution of nitrosative stress to the pathogenesis of endotoxic shock. LPS-challenged GSNOR^−/− mice were treated with 1400 W, a selective iNOS inhibitor. Administration of 1400 W, initiated 6 h following LPS injection, reduced serum nitrate (i.e., NOS activity) by about 50% (FIG. 7A, P=0.015) and liver injury by about 90% (FIG. 7C, P=0.020). This improvement coincided with a reduction of liver SNO by about 90% (FIG. 7B). […] By comparison, PBS (volume control) had little effect (FIG. 7D vs. FIG. 3D). When administration of 1400 W was delayed for 24 h following LPS injection, this allowed SNOs to accumulate to hazardous levels, and the protection conferred by NOS inhibition was lost (3 out of 5 female GSNOR^−/− mice died).

[5] = tested on: animal models of endotoxic shock; conditions: literature (Feihl et al., 2001; Ou et al., 1997); cited from earlier work
[6] = ISO infused for 7 days using a pump (30 mg/kg/day)
[7] = administration of 1400 W delayed for 24 h following LPS injection
[8] = GSNO 10 mg/kg/day via osmotic mini-pump with ISO 30 mg/kg/day

## N[C@@H](CSN=O)C(=O)O [cysNO]
GRK2 [1]
  GRK2-mediated phosphorylation of the purified β2-AR: significantly decreased
GRK2 [2]
  GRK2-mediated phosphorylation of rhodopsin: significantly decreased
GRK2 [3]
  GRK2 mediated phosphorylation of the synthetic peptide substrate: significantly inhibited

## CC(C)NCC(O)c1ccc(O)c(O)c1 (stereo not shown) [isoproterenol]
Cardiac β-ARs; [6]
  cardiac weight: increases
  β adrenergic receptor levels: decreased
  βARK (GRK2) expression: increased

## CC(=N)NCc1cccc(CN)c1 [1400 W, N-[3-(aminomethyl)benzyl]acetamidine]
[4]; 1400 W initiated 6 h following LPS injection, P=0.03
  survival rate of LPS-challenged GSNOR−/− mice: significantly improved
[4]; GSNOR−/− mice, 1400 W 1 μg/g s.c. initiated 6 h following LPS injection, P=0.015
  reduction of serum nitrate (i.e., NOS activity): about 50%
[4]; GSNOR−/− mice, 1400 W initiated 6 h following LPS injection
  reduction of liver SNO: about 90%
[4]; GSNOR−/− mice, 1400 W initiated 6 h following LPS injection, P=0.020
  reduction of liver injury (serum ALT): about 90%
[4]; GSNOR−/− mice, 48 h after LPS treatment, 1400 W initiated 6 h following LPS
  tissue injury in kidney, pancreas, and muscle (serum markers): reduced
[4]; [7]
  female GSNOR−/− mice that died: 3 out of 5
  protection conferred by NOS inhibition: lost
[5]
  effect on injury in animal models of endotoxic shock: either have little effect or worsen injury

## N[C@@H](CCC(=O)N[C@@H](CSN=O)C(=O)NCC(=O)O)C(=O)O [GSNO, S-nitrosoglutathione]
GRK2 [3]
  GRK2 mediated phosphorylation of the synthetic peptide substrate: significantly inhibited
Cardiac β-ARs; [8]
  isoproterenol-stimulated changes in heart weight to body weight ratio: no effect
  β-AR down-regulation: significantly decreased
Cardiac β-ARs; combined infusion of GSNO with ISO
  β receptor density: maintained

## CC(=N)NCCCC[C@H](N)C(=O)O [N-(1-iminoethyl)-L-lysine, N6-(1-Iminoethyl)-L-lysine]
[5]
  effect on injury in animal models of endotoxic shock: either have little effect or worsen injury
